Reference: patent US10682320B2, “Method for inhibiting osteoclast development” (West Virginia University, priority 2012, dated 2020)

What was measured:
Format in all cases: cell-based
[1] = biological target: T1, STIM I/Orai I interaction (Homo sapiens, UniProt Q13586); assay: 2-APB-induced STIM I ct translocation to plasma membrane; conditions: 2-APB 50 μM, as early as 5 seconds
T1 construct: the cytosolic fragment of STIM I (STIM 1 ct); expressed in transfected cells
Description: HEK293 cells, maintained in DMEM with 10% FBS, were transfected with YFP-STIM I using Lipofectamine 2000 (Invitrogen, Carlsbad, Calif.) for 5 h (37° C.; 5% CO2) followed by a 24-h recovery. Cells were placed in 140 mM NaCl, 5 mM KCl, 1 mM MgCl2, 10 mM glucose, 15 mM HEPES, 0.1% BSA, 2 mM CaCl2 and analyzed by confocal microscopy for STIM I puncta formation using a Nikon phase-fluorescence microscope with CCD detectors (Diagnostic instruments, Sterling Heights, Mich.). Phase or transmitted light microscopy used 10-40× objectives and red, green, and blue filters to assemble color images. Fluorescence images used 1.4 NA 40× oil objectives. Red fluorescence used excitation at 530-560 nm, a 575 nm dichroic minor, and 580-650 nm emission filter. Transfection data were analyzed using Nikon NIS Elements Imaging Software. The effect of DCPA on STIM I/Orai I association was determined in wild-type HEK293 cells transfected with STIM I-YFP as described in Wang Y, Deng X, Zhou Y, Hendron E, Mancarelia S, Ritchie M F, Tang X D, Baba Y, Kurosaki T, Mori Y, Soboloff J, Gill DL, “STIM protein coupling in the activation of Orai channels”, Proc Natl Acad Sci USA, Vol. 106, pages 7391-7396, 2009. Experiments were performed on a Leica DMI 6000B fluorescence microscope controlled by Slidebook Software (Intelligent Imaging Innovations, Denver, Colo.).

CRAC channel [2] = biological target: T2, CRAC channel (Homo sapiens, UniProt Q13586); assay: CRAC channel activity as measured by intracellular calcium influx; conditions: for effect on intracellular calcium influx and toxicity in relation to CRAC channel inhibition: DCPA metabolites
T2 sequence (Q13586 23-685): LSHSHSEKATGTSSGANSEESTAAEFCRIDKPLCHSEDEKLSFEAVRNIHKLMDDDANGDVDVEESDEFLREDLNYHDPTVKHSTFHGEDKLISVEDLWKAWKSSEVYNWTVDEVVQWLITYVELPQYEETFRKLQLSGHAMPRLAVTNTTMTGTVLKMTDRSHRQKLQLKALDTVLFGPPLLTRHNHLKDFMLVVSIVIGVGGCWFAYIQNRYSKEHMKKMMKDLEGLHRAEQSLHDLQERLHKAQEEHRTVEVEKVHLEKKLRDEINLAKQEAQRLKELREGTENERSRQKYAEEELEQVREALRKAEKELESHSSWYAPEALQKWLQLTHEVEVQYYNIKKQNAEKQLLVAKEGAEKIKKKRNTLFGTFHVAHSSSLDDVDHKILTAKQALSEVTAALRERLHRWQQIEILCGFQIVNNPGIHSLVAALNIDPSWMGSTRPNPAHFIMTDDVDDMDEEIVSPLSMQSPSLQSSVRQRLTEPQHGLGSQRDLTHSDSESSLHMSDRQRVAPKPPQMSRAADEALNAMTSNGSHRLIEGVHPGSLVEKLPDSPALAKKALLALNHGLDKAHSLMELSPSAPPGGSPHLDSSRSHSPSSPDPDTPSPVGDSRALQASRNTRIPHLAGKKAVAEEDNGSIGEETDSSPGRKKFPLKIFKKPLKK
Text: The metabolism of DCPA by acylamidase produces DCA as mentioned above. DCA is then metabolized to N—OH-DCA and 6-OH-DCA. Both N—OH-DCA and 6-OH-DCA contribute to the systemic toxicity associated with in vivo administration of DCPA. […] Thus, the CRAC channel inhibitory activity of DCPA is not attributable to any of these toxic metabolites. Given that the CRAC channel inhibition associated with DCPA was not due to the more toxic metabolites, the present invention discloses haloanilide compositions of Formula I, and salts thereof that are not metabolized to DCA but that have similar CRAC channel inhibitory qualities of DCPA:
[drawing 7] wherein X is either chlorine or bromine, Y is either hydrogen or an alkyl group having a carbon chain length from 1 to 5 carbon atoms, and R is an alkyl group having a carbon chain length from 1 to 5 carbon atoms, except wherein X is not chlorine when Y is hydrogen and R is an ethyl group. Synthesis routes for N-(3,4-dibromophenyl)propanamide [also referred to as “DBPA” or “N-(3,4-bibromophenyl)propionamide”], N-(3,4-dichlorophenyl)-N-methylpropanamide [also referred to as “N-Methyl Propanil”; or “N-Methyl-DCPA”; or “NMP”; or “NM Propanil”; or “N-(3,4-dichlorophenyl)-N-methylpropionamide”; or “N,N-Methyl, Propyl-CA” (CA=carboxamide)], 3,4-dichloro-N-methyl-N-isobutyramide [also referred to as “N-(3,4-dichlorophenyl)-N,2-dimethylpropanamide”; or “DNMI”], N-(3,4-dichlorophenyl)-2-dimethylpropanamide, N-(3,4-dichlorophenyl)isobutyramide [also referred to as “DNI” or “N-Isobutyl-CA” (CA=carboxamide)], and N-(3,4-dichlorophenyl)-N-methylisobutyramide [also referred to as “N,N-Me, Isobutyl-CA” (CA=carboxamide)]. Each of the haloanilide compositions of this invention have undergone in vitro toxicity testing on Jurkat cells—this is a T cell line that is sensitivity to toxic effects and thus, was used to determine the effect of the compounds on viability. Each of the compositions of Formula I are capable of inhibiting CRAC channel activity as measured by intracellular calcium influx. […] FIGS. 4 and 5 show chemical structures of preferred haloanilide compositions of this invention.

CRAC channel [3] = biological target: T2, CRAC channel; assay: CRAC channel activity by Fura-2 fluorescence in Jurkat cells after thapsigargin; parameters: endogenous in cells; host or cells: Jurkat cells; conditions: 100 uM, 10 minutes before thapsigargin
Description: Ratiometric imaging of intracellular Ca^2+ using fura-2 was as described (see, Zhou et al., 2009 above). Briefly, cells on coverslips, in cation safe solution (107 mM NaCl, 7.2 mM KCl, 1.2 mM MgCl2, 11.5 mM glucose, 20 mM HEPES-NaOH, pH 7.2) were loaded with fura-2 acetoxymethyl ester (2 μM) for 30 min at 24° C. Cells were washed and fluorescent probe was allowed to de-esterify for 30 min. From signal remaining after saponin permeabilization, ˜85% of the dye was confined to the cytoplasm (see, Ma H-T, Patterson R L. van Rossum D B. Birnbaumer L, Mikoshiba K, Gill D L, “Requirement of the inositol trisphosphate receptor for activation of store-operated Ca^2+ channels”, Science, Vol. 287, pages 1647-1651, 2000). Ca^2+ measurements were made using a Leica DMI 6000B fluorescence microscope controlled by Slidebook Software. Fluorescence emission at 505 nm was monitored while alternating between 340 and 380 nm excitation wavelengths at a frequency of 0.67 Hz; intracellular Ca^2+ measurements are shown as 340/380 nm emission ratios obtained from groups (35-45) of single cells. Measurements shown are representative a minimum of three independent experiments.
N-(3,4-dibromophenyl)propanamide]. Jurkat cells, a T cell line that is very sensitive to DCPA, was cultured with the indicated compounds, DCPA, DBPA, and ethanol (EtOH). CRAC channel activity was monitored using Fura-2 fluorescence using standard known techniques. Cells were incubated in each composition at 100 uM for 10 minutes prior to addition of the SERCA inhibitor thapsigargin (Tg) to induce SOCe. Decreased CRAC channel activity is clearly evident with DCPA and DBPA.
Jurkat cells, a T cell line that is very sensitive to DCPA, was cultured with the indicated compositions of the present invention, namely, DNI, NM Propanil, and DNMNI. CRAC channel activity was monitored using Fura-2 fluorescence using standard known techniques. Cells were incubated in each composition at 100 uM for 10 minutes prior to addition of the SERCA inhibitor thapsigargin (Tg) to induce SOCe. Decreased CRAC channel activity is clearly evident with each of the compositions of the present invention. […] Each of the compositions of this invention achieve the results achieved with the known DCPA but without the burden of toxicity of DCPA that would accompany further metabolism of DCPA.

[4] = system: human monocytes differentiating into osteoclasts; assay: Human osteoclast differentiation in vitro (multinucleation, TRAP); conditions: 10 and 100 μM, 8 days after RANKL
Description: Human monocytes were isolated from normal buffy coat cells (60-80 ml) obtained with approval of institutional review boards by separation from donor blood, the white-cell depleted blood retained for clinical use. Human monocyte culture and differentiation were as reported (see, Yaroslayskly B B, Zhang Y, Kalla S E, Garcia P V, Sharrow A C, Li Y, Zaidi M, Wu C, Blair H C, “NO-dependent osteoclast motility: Reliance on cGMP-dependent protein kinase I and VASP”, J Cell Sci I, Vol. 18, pages 5479-5487, 2005). Briefly, human monocytes cells were isolated from buffy coat on ficoll lymphocyte separation media and cultured at ˜6×10^5 cells per cm^2 in monocyte maintenance medium, Dulbecco's modified essential medium (DMEM) with 20 ng/ml of human m-CSF and 10% FBS, for 24 hours (h). After 24 h in culture, the medium was changed to osteoclast differentiation medium containing in addition of human 50 ng/ml of RANKL, with the additional inhibitors or activators as specified in results. Human osteoclast cultures were generally maintained for a minimum of 7 days before analysis, or longer times as specified in results.
The effect of DCPA on human osteoclast differentiation 8 days after addition of RANKL was evaluated.

[5] = system: Store-Operated Calcium Entry (SOCE); assay: Store-Operated Calcium Entry (SOCE) inhibition dose response (FIG. 10)

T1 sequence (Q13586 235-685 limits assumed): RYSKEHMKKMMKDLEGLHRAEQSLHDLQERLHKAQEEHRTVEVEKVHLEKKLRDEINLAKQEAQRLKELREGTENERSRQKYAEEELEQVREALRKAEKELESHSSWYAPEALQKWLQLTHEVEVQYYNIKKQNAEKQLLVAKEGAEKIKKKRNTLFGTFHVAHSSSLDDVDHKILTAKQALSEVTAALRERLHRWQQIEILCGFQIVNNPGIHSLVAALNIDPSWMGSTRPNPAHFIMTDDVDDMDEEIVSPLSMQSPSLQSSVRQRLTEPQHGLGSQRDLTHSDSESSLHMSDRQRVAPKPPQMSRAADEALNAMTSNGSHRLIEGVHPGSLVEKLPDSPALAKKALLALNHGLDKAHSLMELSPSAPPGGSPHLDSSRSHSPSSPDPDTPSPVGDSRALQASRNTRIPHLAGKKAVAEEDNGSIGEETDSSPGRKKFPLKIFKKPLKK

CRAC channel activity (CRAC channel [3]) | SMILES | effect on intracellular calcium influx and toxicity in relation to CRAC channel inhibition (CRAC channel [2]) | also measured
 | NCCOB(c1ccccc1)c1ccccc1 [2-APB, 2-aminoethoxydiphenylborate] |  | translocation of STIM I ct towards the PM [1]: significant translocation
 | Nc1cc(Cl)c(Cl)cc1O [6-OH-DCA] | not associated with CRAC channel inhibition | 
Decreased | CCC(=O)Nc1ccc(Br)c(Br)c1 [DBPA, N-(3,4-dibromophenyl)propanamide] |  | 
 | Nc1ccc(Cl)c(Cl)c1 [DCA, dichloroaniline] | not associated with CRAC channel inhibition | 
 | CCC(=O)Nc1ccc(F)c(F)c1 [DFPA, 3,4-difluoropropioanilide] |  | number of multinucleated cells [4]: no significant effect
Decreased | CC(C)C(=O)Nc1ccc(Cl)c(Cl)c1 [DNI, N-(3,4-dichlorophenyl)isobutyramide] |  | 
Decreased | CC(C)C(=O)N(C)c1ccc(Cl)c(Cl)c1 [DNMNI, N-(3,4-dichlorophenyl)-N-methylisobutyramide] |  | 
Decreased | CCC(=O)N(C)c1ccc(Cl)c(Cl)c1 [NMP, N-(3,4-dichlorophenyl)-N-methylpropanamide] |  | inhibition of CRAC channel activity as measured by intracellular calcium influx (CRAC channel [2]): effective at lower concentrations; IC50 ([5]; FIG. 10B): 104 µM; dose response compared with known DCPA ([5]; doses 3 μM to 1 mM, FIG. 10A): at least equal
 | ONc1ccc(Cl)c(Cl)c1 [N—OH-DCA] | not associated with CRAC channel inhibition | 
